# Results reported in US11001587B2, “Substituted indazoles as phosphatidylinositol kinase inhibitors” (CUROVIR AB, priority 2017, dated 2021).
# Like-named read-outs stand apart in the source and are kept apart here.
# Experiments:
# Enterovirus 68 = experiment: In vitro CPE assay in mammalian cell culture, EV68; type: cell-based; details: Enterovirus D, viral cytopathic effect in mammalian cell culture, read-out: EV68 inhibition capacity (IC50)
# Enterovirus 30 = experiment: In vitro CPE assay in mammalian cell culture, EV30; type: cell-based; details: viral cytopathic effect in mammalian cell culture, read-out: EV30 inhibition capacity (IC50)
# Enterovirus 6 = experiment: In vitro CPE assay in mammalian cell culture, EV6; type: cell-based; details: viral cytopathic effect in mammalian cell culture, read-out: EV6 inhibition capacity (IC50)
# in vivo = experiment: in vivo; design: species or system Sprague Dawley rats; details: male, Sprague Dawley, rat, po, 50 mg/kg
# Procedure: Overnight fasted animals were administered with the test compounds in recommended vehicle 0.4% (v/v) Tween 80+2% (v/v) Glycerol and 15% w/v HPBCD by oral route with a dose of 50 mg/kg body weight at dose volume of 10 mL/kg bw. Under mild isoflurane anesthesia, blood samples were collected into pre-labeled tubes containing anticoagulant (K2EDTA—2 mg/mL blood) during the next 24 hours post dose. Collected blood samples were centrifuged at 4000 rpm, 4° C. for 10 minutes and plasma was separated and stored at −80° C. until analysis.
# polio virus Sabin 1 = experiment: organism not typed; type: cell-based; details: read-out: Polio 1 inhibition capacity (IC50)
# coxsackie B4 virus = experiment: In vitro CPE assay in mammalian cell culture, B4; type: cell-based; details: Enterovirus B, viral cytopathic effect in mammalian cell culture, read-out: B4 inhibition capacity (IC50)
# coxsackie B3 virus = experiment: In vitro CPE assay in mammalian cell culture, B3; type: cell-based; details: Enterovirus B, viral cytopathic effect in mammalian cell culture, read-out: B3 inhibition capacity (IC50)
# coxsackie B5 virus = experiment: In vitro CPE assay in mammalian cell culture, B5; type: cell-based; details: viral cytopathic effect in mammalian cell culture, read-out: B5 inhibition capacity (IC50)
# coxsackie B2 virus = experiment: In vitro CPE assay in mammalian cell culture, B2; type: cell-based; details: viral cytopathic effect in mammalian cell culture, read-out: B2 inhibition capacity (IC50)
# Enterovirus 71 = experiment: In vitro CPE assay in mammalian cell culture, EV71; type: cell-based; details: Enterovirus A, viral cytopathic effect in mammalian cell culture, read-out: EV71 inhibition capacity (IC50)
# coxsackie B1 virus = experiment: In vitro CPE assay in mammalian cell culture, B1; type: cell-based; details: viral cytopathic effect in mammalian cell culture, read-out: B1 inhibition capacity (IC50)
# PI4KIIIα = PI4KIIIα (Homo sapiens, UniProt P42356); experiment: Phosphatidyl inositol kinase inhibition assay (ADP-Glo Kinase Assay); type: biochemical; details: * no inhibition at the highest tested concentration 1 μM
# Sequence of PI4KIIIα (P42356 whole entry): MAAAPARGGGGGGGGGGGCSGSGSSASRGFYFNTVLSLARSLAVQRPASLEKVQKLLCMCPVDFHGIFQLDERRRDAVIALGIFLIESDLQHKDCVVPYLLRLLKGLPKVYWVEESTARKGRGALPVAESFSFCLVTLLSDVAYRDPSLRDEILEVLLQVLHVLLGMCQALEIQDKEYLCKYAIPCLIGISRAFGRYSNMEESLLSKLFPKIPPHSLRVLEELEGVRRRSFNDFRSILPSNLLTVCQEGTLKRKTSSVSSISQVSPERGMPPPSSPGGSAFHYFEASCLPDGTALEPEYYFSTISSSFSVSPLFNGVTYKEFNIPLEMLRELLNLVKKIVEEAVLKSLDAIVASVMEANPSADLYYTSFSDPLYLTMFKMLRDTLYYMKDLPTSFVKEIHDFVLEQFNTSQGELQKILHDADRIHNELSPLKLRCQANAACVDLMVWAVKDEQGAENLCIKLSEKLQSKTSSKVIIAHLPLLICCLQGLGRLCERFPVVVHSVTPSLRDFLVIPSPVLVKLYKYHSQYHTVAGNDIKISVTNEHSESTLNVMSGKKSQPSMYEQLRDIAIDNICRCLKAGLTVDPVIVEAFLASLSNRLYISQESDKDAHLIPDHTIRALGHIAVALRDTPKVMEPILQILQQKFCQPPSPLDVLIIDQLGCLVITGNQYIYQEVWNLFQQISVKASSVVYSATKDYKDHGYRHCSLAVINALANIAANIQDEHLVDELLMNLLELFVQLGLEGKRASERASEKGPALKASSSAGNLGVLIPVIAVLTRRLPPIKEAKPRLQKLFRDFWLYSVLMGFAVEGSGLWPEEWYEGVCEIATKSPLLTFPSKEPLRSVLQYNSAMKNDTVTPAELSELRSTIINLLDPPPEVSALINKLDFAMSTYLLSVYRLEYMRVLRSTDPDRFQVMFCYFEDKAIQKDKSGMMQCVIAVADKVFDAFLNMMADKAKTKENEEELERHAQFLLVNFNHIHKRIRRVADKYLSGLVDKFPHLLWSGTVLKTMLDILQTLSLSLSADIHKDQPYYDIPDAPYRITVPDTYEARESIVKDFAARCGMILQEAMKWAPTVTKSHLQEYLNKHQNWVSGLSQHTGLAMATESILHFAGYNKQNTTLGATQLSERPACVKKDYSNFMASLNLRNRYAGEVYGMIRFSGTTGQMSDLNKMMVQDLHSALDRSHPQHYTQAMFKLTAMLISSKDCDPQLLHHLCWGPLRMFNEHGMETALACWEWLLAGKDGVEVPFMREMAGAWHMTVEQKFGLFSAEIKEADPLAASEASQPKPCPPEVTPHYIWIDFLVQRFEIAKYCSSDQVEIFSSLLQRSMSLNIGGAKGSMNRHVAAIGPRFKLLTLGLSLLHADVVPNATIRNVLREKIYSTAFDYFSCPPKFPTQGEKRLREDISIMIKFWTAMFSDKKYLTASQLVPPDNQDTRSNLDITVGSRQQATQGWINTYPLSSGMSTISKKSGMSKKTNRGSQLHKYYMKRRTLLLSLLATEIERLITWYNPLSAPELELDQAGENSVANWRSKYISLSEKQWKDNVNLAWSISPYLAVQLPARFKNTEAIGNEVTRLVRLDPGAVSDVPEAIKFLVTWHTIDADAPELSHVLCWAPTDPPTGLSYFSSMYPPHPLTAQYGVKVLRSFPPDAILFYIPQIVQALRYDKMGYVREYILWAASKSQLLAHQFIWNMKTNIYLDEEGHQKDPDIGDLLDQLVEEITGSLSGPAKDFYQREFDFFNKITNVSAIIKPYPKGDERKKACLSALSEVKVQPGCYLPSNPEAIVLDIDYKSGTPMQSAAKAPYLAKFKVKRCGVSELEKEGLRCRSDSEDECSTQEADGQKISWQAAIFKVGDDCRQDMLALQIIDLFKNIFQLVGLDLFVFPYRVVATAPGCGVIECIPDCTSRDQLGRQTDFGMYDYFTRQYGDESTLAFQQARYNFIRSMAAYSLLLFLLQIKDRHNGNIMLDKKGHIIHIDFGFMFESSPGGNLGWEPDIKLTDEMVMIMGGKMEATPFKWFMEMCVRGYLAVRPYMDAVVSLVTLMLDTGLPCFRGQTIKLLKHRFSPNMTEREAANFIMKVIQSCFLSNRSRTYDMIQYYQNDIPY
# Procedure: (§1) Phosphatidyl inositol kinase inhibition assay Inhibition of PI4 kinases was studied using the ADP-Glo™ Kinase Assay which is a luminescent kinase assay that measures ADP formed from a kinase reaction, wherein ADP is converted into ATP, which is converted into light by Ultra-Glo™ Luciferase. The assay is performed in two steps; first, after the kinase reaction, an equal volume of ADP-Glo™ Reagent is added to terminate the kinase reaction and deplete the remaining ATP. In the second step, the Kinase Detection Reagent is added, which simultaneously converts ADP to ATP and allows the newly synthesized ATP to be measured using a coupled luciferase/luciferin reaction. The luminescent signal produced is proportional to the activity of the kinase. Inhibition of PI3 kinases was studied using the HTRF (homogeneous time-resolved fluorescence) assay, which is a universal method for identifying and characterizing the phosphotransferase activity induced by any ATP/ADP dependent target. The formation of ADP was detected by a specific monoclonal antibody labeled with Eu^3+ cryptate, and directly correlated with the amount of phosphorylated substrate.
# PI4KIIIβ = PI4KIIIβ (Homo sapiens, UniProt Q9UBF8); experiment: as above; type: biochemical
# Procedure: as §1
# PI3Kβ = PI3Kβ (Homo sapiens, UniProt P42338); experiment: PI3 kinase inhibition HTRF assay; type: biochemical; details: * no inhibition at the highest tested concentration 1 μM
# Sequence of PI3Kβ (P42338 whole entry, species assumed): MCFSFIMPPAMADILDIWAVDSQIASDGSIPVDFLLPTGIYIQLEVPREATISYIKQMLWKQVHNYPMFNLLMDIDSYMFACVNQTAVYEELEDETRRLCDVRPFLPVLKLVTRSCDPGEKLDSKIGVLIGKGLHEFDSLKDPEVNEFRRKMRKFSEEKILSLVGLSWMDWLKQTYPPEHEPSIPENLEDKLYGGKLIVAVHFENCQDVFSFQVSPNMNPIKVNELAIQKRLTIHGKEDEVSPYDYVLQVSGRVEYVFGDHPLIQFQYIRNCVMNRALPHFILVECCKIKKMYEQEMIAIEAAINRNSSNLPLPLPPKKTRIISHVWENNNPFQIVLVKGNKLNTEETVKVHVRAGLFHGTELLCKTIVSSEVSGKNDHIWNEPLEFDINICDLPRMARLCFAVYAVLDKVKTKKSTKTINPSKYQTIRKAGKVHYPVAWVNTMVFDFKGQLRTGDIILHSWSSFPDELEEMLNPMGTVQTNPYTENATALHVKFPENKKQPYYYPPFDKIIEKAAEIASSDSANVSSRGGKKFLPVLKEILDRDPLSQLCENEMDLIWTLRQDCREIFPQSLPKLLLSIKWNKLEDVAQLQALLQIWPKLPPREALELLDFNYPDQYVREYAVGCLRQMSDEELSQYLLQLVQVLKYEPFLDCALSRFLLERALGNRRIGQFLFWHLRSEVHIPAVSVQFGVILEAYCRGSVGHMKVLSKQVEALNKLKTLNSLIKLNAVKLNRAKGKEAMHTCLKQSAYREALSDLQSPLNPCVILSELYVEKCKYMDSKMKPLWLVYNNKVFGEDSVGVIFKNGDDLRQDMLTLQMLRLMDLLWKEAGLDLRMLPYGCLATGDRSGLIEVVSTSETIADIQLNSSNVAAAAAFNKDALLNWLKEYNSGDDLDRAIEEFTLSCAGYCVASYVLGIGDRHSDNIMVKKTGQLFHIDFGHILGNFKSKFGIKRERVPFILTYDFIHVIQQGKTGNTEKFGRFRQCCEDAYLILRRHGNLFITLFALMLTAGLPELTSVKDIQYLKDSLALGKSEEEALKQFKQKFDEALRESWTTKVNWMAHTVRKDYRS
# Sequence of PI3Kβ (P27986 whole entry partner, species assumed): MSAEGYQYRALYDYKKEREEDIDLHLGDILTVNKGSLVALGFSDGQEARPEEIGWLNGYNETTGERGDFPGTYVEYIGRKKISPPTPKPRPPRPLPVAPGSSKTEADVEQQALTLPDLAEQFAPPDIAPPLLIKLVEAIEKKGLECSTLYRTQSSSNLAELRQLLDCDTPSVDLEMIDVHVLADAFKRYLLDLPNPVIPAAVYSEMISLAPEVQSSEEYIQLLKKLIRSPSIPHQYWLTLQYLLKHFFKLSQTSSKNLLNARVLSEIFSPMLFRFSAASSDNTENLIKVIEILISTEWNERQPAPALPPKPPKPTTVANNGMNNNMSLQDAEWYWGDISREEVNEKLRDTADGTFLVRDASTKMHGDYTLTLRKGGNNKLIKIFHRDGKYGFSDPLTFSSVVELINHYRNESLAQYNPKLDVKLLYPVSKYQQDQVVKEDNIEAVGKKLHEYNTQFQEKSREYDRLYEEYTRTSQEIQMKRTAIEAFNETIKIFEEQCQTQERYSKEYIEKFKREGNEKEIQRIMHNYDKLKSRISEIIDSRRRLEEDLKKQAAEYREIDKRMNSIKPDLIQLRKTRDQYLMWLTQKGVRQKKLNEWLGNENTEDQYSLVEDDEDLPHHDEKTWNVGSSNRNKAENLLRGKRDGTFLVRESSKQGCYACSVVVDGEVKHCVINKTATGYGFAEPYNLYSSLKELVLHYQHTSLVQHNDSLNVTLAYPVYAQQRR
# Procedure: as §1
# PI3Kα = PI3Kα (Homo sapiens, UniProt P42336); experiment: PI3 kinase inhibition HTRF assay; type: biochemical; details: * no inhibition at the highest tested concentration 1 μM
# Sequence of PI3Kα (P42336 whole entry, species assumed): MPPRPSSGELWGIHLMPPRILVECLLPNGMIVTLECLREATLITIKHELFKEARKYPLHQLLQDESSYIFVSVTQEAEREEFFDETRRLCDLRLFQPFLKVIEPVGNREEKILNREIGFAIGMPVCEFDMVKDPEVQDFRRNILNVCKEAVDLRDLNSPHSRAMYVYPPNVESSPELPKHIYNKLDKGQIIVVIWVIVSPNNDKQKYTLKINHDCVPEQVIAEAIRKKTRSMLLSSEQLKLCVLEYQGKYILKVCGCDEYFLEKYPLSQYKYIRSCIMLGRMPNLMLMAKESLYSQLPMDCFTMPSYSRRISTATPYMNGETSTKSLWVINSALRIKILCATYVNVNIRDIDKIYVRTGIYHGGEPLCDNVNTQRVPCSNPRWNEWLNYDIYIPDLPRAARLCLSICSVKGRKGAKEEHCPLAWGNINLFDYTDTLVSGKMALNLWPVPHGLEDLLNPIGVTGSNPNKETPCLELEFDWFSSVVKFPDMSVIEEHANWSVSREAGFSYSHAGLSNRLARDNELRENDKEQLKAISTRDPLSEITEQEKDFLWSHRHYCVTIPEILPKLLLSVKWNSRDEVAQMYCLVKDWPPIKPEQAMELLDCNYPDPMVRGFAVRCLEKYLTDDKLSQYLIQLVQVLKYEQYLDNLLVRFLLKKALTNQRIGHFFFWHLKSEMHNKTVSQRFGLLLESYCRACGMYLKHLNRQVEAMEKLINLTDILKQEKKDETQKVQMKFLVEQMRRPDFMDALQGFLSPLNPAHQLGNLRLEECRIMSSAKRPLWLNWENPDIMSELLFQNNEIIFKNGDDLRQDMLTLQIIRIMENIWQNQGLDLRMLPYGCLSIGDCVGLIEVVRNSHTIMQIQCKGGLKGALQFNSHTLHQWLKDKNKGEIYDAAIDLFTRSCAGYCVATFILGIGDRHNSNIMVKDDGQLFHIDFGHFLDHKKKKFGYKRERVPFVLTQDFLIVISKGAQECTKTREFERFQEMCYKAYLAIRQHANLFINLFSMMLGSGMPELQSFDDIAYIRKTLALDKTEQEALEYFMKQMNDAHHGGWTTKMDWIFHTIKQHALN
# Sequence of PI3Kα (P27986 whole entry partner, species assumed): as the sequence (P27986 whole entry partner, species assumed) above
# Procedure: as §1
# [1] = Metabolic stability in rat liver microsomes; type: in vitro ADME; details: 5 μM test item, 0.125 mg/mL microsomal protein
# Procedure: (§2) Metabolic stability in human and rat liver microsomesMetabolic stability was studied using human (HLM) or rat (RLM) liver microsomes. The final composition of the assay included 5 μM of test item and reference item (Diclofenac or Imipramine) prepared from DMSO stock, so that the final concentration of DMSO was 0.1%, 0.125 mg/mL microsomal protein and cofactors (5.0 mM G-6-P, 0.06 U/mL G-6-PDH, 2.0 mM MgCl2, 1.0 mM NADP^+). Test and reference items were incubated with human or rat liver microsomes with or without cofactors. The reaction mixture (100 μL) was removed at specified time periods and the reaction was stopped by addition of stop solution. The samples were extracted in presence of internal standard and were analyzed using LC-MS/MS. The percent of the test/reference item remaining after a specified incubation period was calculated with respect to the peak area ratio at time 0 min.
# [2] = Metabolic stability in human liver microsomes; type: in vitro ADME; details: for Remaining after 1 h, HLM: human liver microsomes, 5 μM test item, 0.125 mg/mL microsomal protein; for half-life at 5 μM: human, microsomes
# Procedure: as §2
# in vitro = in vitro ADME; details: plasma, pH 7.4
# Procedure: Plasma protein binding study was performed by using a Rapid Equilibrium Dialysis (RED) device containing dialysis membrane with a molecular weight cut-off of 8,000 Daltons. Each dialysis insert contains two chambers. The red chamber was for the plasma while the white chamber was for the buffer. The human and rat plasma (pH adjusted to 7.40) samples of test items and reference items (Warfarin and Propranolol) were prepared at a required test concentration of 5 μM using 5 mM DMSO stocks (final DMSO concentration was 0.1%). 300 μL of plasma sample was added into the sample chamber. 500 μL of buffer was added into the buffer chamber. After sealing the RED device with an adhesive film, incubation was done at 37° C. with shaking at 300 rpm for 4 h. Following incubation, an aliquot of 50 μL was removed from each well (plasma and buffer side) and diluted with equal volume of opposite matrix to nullify the matrix effect. The specimens were subjected to sample extraction in presence of internal standard by liquid-liquid extraction/protein precipitation method. After extraction, the samples were transferred into labeled auto sampler vials and submitted to LC-MS/MS analysis.
# EV71 = experiment: Time of addition assay; type: cell-based, Enterovirus 71; details: Enterovirus A, 100 nM, EV71 at high titer
# Procedure: The titer of the virus was determined by the standard method of tissue culture infective dose (TCID50) on cells. Briefly, cells were infected with 50 μl of virus suspension, and diluted 10-fold in media. The plates were incubated in 37° C. with 5% CO2 for 3-7 days and cells were inspected daily for CPE. After determining CPE, plates were stained with Gram's Crystal Violet solution and optical density was read at 540 nm. […] Substances at a final concentration of 0.1 nM-1 μM and the virus were added to the cells and incubated for 3-7 days depending on the virus and cell line used. As controls, uninfected cells and cells infected with virus (no substance) were included on each plate. The cells were stained with crystal violet after determining the CPE on infected controls and the optical density was read at 540 nm. The inhibition capacity was calculated as a % by comparison with non-infected and infected controls. Time of addition assay The assay was performed like the “in vitro assay in mammalian cell culture” described above with the exception that substance was added one hour pre inoculation (−1 h), at inoculation (0 h), and 2 hours (+2 h), 6 hours (+6 h) or 24 hours (+24 h) past inoculation. The virus EV71 was used at high titer for the test.
SMILES,IC50 (Enterovirus 68) [nM],IC50 (Enterovirus 30) [nM],IC50 (Enterovirus 6) [nM],AUC(0-inf) (in vivo) [ng·h/mL],AUC(0-t) (in vivo) [ng·h/mL],AUCextrap (in vivo) [%],Cmax (in vivo) [ng/mL],MRT last (in vivo) [h],Tmax (in vivo) [h],half-life (in vivo) [h],IC50 (polio virus Sabin 1) [nM],IC50 (coxsackie B4 virus) [nM],IC50 (coxsackie B3 virus) [nM],IC50 (coxsackie B5 virus) [nM],IC50 (coxsackie B2 virus) [nM],IC50 (Enterovirus 71) [nM],IC50 (coxsackie B1 virus) [nM],other results
"Cc1cc(NCc2ccc(S(N)(=O)=O)cc2)n2nc(C)c(-c3ccc4c(c3)c(C)nn4C)c2n1 [Example 13, 4-(((3-(1,3-dimethyl-1H-indazol-5-yl)-2,5-dimethylpyrazolo[1,5-a]pyrimidin-7-yl)amino)methyl)benzene-sulfonamide]",< 1000,< 100,< 1000,76100 ± 26800,62100 ± 10900,14.5 ± 17.1,5900 ± 900,7.5 ± 1.4,2,8.2 ± 5.4,< 100,< 100,< 100,< 100,< 1000,< 100,< 1000,
"Cc1ccc(CNc2cc(C)nn3c(-c4ccc5c(c4)c(C)nn5C)c(C)nc23)cn1 [Example 2, 3-(1,3-dimethyl-1H-indazol-5-yl)-2,6-dimethyl-N-((6-methylpyridin-3-yl)methyl)imidazo[1,2-b]pyridazin-8-amine]",< 1000,< 100,< 100,64100 ± 7000,58600 ± 9900,8.8 ± 7.1,4800 ± 800,6.9 ± 0.8,1.7 ± 0.6,6.6 ± 2.4,< 100,< 10,< 10,< 100,< 100,< 100,< 100,IC50 (PI4KIIIα): 200 nM; IC50 (PI4KIIIβ): 1.5 nM; IC50 (PI3Kβ): 1700 nM; IC50 (PI3Kα): > 1000 nM
"Cc1cc(NCc2ccncc2)c2nc(C)c(-c3ccc4c(c3)c(C)nn4C)n2n1 [Example 1, 3-(1,3-dimethyl-1H-indazol-5-yl)-2,6-dimethyl-N-(pyridin-4-ylmethyl)imidazo[1,2-b]pyridazin-8-amine]",< 100,< 0.1,< 10,31800 ± 8000,22200 ± 2100,27.8 ± 14.8,3900 ± 400,3.4 ± 0.2,1.7 ± 0.6,4.3 ± 2,< 1,,< 1,< 0.1,< 10,< 10,< 10,"Remaining after 1 h, RLM [1]: 88%; Remaining after 1 h, HLM [2]: 90%; half-life at 5 μM [2]: > 2 h; fraction unbound at 4 h, 5 μM (in vitro; human): 0.016; fraction unbound at 4 h, 5 μM (in vitro; rat): 0.03"
"Cc1cc(NCc2ccc(NS(C)(=O)=O)cc2)n2nc(C)c(-c3ccc4c(c3)c(C)nn4C)c2n1 [Example 16, N-(4-(((3-(1,3-dimethyl-1H-indazol-5-yl)-2,5-dimethylpyrazolo[1,5-a]pyrimidin-7-yl)amino)meth-yl)phenyl)methane-sulfonamide]",< 1000,< 1000,< 1000,,,,,,,,< 1000,< 100,< 100,< 1000,< 1000,< 1000,< 1000,
"Cc1cc(NCc2ccc(Cl)cc2)n2nc(C)c(-c3ccc4c(c3)c(C)nn4C)c2n1 [Example 11, N-(4-chlorobenzyl)-3-(1,3-dimethyl-1H-indazol-5-yl)-2,5-dimethylpyrazolo[1,5-a]pyrimidin-7-amine]",< 1000,< 1000,< 1000,,,,,,,,< 1000,< 100,< 1000,< 1000,< 1000,< 1000,< 1000,
"Cc1cc(NCc2ccc(S(C)(=O)=O)cc2)c2nc(C)c(-c3ccc4c(c3)c(C)nn4C)n2n1 [Example 7, 3-(1,3-dimethyl-1H-indazol-5-yl)-2,6-dimethyl-N-(4-(methyl-sulfonyl)benzyl)imidazo[1,2-b]pyridazin-8-amine]",< 1,< 100,,,,,,,,,< 10,< 100,< 1,< 10,< 10,< 1,< 10,"Remaining after 1 h, RLM [1]: 94%; Remaining after 1 h, HLM [2]: 75%; half-life at 5 μM [2]: > 2 h; fraction unbound at 4 h, 5 μM (in vitro; human): 0.005; fraction unbound at 4 h, 5 μM (in vitro; rat): 0.006; inhibition at 0.1 µM (EV71; 0 h, substance added at inoculation, read-out: Inhibition of cytopathogenic effect, 0 h): 85%; inhibition at 0.1 µM (EV71; 1 h, substance added one hour pre inoculation, read-out: Inhibition of cytopathogenic effect, −1 h): 95%; inhibition at 0.1 µM (EV71; substance added 2 hours past inoculation, read-out: Inhibition of cytopathogenic effect, +2 h): 100%; inhibition at 0.1 µM (EV71; substance added 6 hours past inoculation, read-out: Inhibition of cytopathogenic effect, +6 h): 91%; inhibition at 0.1 µM (EV71; substance added 24 hours past inoculation, read-out: Inhibition of cytopathogenic effect, +24 h): 2%"
"Cc1nc(NCc2ccc(Cl)cc2)n2nc(C)c(-c3ccc4c(c3)c(C)nn4C)c2n1 [Example 24, N-(4-chlorobenzyl)-8-(1,3-dimethyl-1H-indazol-5-yl)-2,7-dimethylpyrazolo[1,5-a][1,3,5]triazin-4-amine]",< 1000,< 100,< 1000,,,,,,,,< 100,< 100,< 100,< 1000,< 100,< 100,< 100,
